From patent US9561228B2 (Celgene Avilomics Research, Inc., priority 2013, dated 2017)

Experiments:
[1] = test system: ERK1/2 phosphorylation of p90RSK in HT29 cells; assay: pRSK MSD Assay in HT29 cells; format: cell-based; conditions: Homo sapiens, HT-29, read-out: ERK1/ERK2 PRSK MSD HT29 EC50
Protocol: The protocol below describes an assay to measure the kinase activity of ERK1/2 to phosphorylate a substrate, p90RSK, in the presence or absence of a test compound. This experiment was conducted using a Mesoscale Discovery plate. The day before the assay, HT29 cells were split and plated at 50,000 cells/well in complete growth media. After allowing cells to adhere, the media was removed and replaced with media containing 0.1% FBS and incubated overnight. Blank MSD plates (Mesoscale Discovery, Cat # L15XA3) were coated with 25 μl/well RSK capture antibody (BD Biosciences, Cat. #610226) and incubated at 4° C. overnight, then blocked with 150 μl of 3% BSA solution. The next day, the media from the cell culture plate was removed and replaced with 100 μl of media containing a test compound and incubated for 120 minutes at 37° C. The media was removed and replaced with 55 μl per well of lysis buffer with protease inhibitors (Roche Biosciences, Cat. #11836170001) and phosphatase inhibitors (Sigma-Aldrich, Cat. # P-0044 and P-5726), followed by incubation at 4° C. for 30 minutes. 50 μl of lysate was transferred to a blocked MSD plate, followed by incubation at room temperature for 2 hours under constant shaking. The plate was washed 3 times with MSD wash buffer (Mesoscale Discovery, Cat. # R617TX), and 25 μl/well phospho-RSK (pRSK) detection antibody (Cell Signaling Technology, Cat. #9335) was added with Sulfo-tagged detection antibody (Mesoscale Discovery, Cat. # R32AB-1) diluted in 1% BSA in MSD wash buffer. This mixture was incubated for 1 hour at room temperature under constant shaking. The plate was washed 3 times, and 150 μl 1×MSD read buffer was added, followed by signal detection in an MSD plate reader.

[2] = molecular target: T1, MEK1 activated ERK1 (Homo sapiens, UniProt P27361); assay: Omnia continuous-read kinase assay for potency against MEK1 activated ERK1; format: biochemical; conditions: MEK1 activated ERK1, ATP at KM; read-out: ERK1 Omnia WT ATP KM IC50
T1 construct: purchased Millipore (Billerica, Mass.) 14-439-K
Text: Omnia Assay Protocol for Potency Assessment Against MEK1 Activated ERK1:
The protocol below describes continuous-read kinase assays to measure potency of compounds against activated ERK1 enzyme. The mechanics of the assay platform are best described by the vendor (Invitrogen, Carlsbad, Calif.) on their website at the following URL: invitrogen.com/site/us/en/home.html.
Briefly, a 1.25× stock of ERK1 enzyme (14-439-K) from Millipore (Billerica, Mass.), 5×ATP (AS001A) and ST17-Sox conjugated peptide substrate (KNZ1171C) were prepared in 1× kinase reaction buffer consisting of 20 mM Tris, pH 7.5, 5 mM MgCl2, 1 mM EGTA, 5 mM β-glycerophosphate, 5% glycerol (10× stock, KB002A) and 0.2 mM DTT. 10 μL of ATP/ST17-sox peptide substrate mix was combined with 0.5 μL volume of 100% DMSO and serially diluted compounds were prepared in 100% DMSO in a Corning (#3574) 384-well, white, non-binding surface microtiter plate (Corning, N.Y.). Kinase reactions were started with the addition of 40 μL of ERK1 solution and monitored every 71 seconds for 30-240 minutes at λex360/λem485 in a Synergy plate reader from BioTek (Winooski, Vt.). At the conclusion of each assay, progress curves from each well were examined for linear reaction kinetics and fit statistics (R^2, 95% confidence interval, absolute sum of squares). Initial velocity (0 minutes to ˜30+ minutes) from each reaction was determined from the slope of a plot of relative fluorescence units vs time (minutes or seconds) and then plotted against inhibitor concentration to estimate ^AppIC50 from log [Inhibitor] vs Response, Variable Slope model in GraphPad Prism from GraphPad Software (San Diego, Calif.).
[Reagent] used in optimized protocol:
[ERK1]=4 nM, [ATP]=50 μM, [ST17-Sox]=10 μM (ATP ^appKM 48 μM)
The results of this assay show the degree of inhibition of ERK activity, which is a direct measurement of inhibition of ERK activity. Results from this assay are reported in Table A under the column “ERK1 Omnia WT ATP KM IC50 (nM).”

T1 sequence (P27361 whole entry): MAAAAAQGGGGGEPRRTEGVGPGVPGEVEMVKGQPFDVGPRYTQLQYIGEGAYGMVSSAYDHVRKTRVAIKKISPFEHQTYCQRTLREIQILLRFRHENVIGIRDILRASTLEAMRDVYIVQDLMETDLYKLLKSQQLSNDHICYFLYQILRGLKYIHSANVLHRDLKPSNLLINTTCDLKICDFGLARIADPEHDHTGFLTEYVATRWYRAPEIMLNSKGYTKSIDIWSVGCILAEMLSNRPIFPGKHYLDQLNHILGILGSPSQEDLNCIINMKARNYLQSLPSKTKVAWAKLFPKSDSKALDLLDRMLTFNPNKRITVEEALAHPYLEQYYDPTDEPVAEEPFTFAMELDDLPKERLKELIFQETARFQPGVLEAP

Row | Compound | EC50 [1] [nM] | IC50 [2] [nM]
1 | C=CC(=O)Nc1ccc(C)cc1Nc1nc(NC2CCC(=O)CC2)ncc1C(F)(F)F [Compound I-39, N-(4-Methyl-2-((2-((4-oxocyclohexyl)amino)-5-(trifluoromethyl)pyrimidin-4-yl)amino)phenyl)acrylamide] | 501 to 999 | 101 to 500
2 | C=CC(=O)Nc1ccccc1Nc1nc(NC2CCCCC2)ncc1Cl [Compound I-107, N-(2-((5-chloro-2-(cyclohexylamino)pyrimidin-4-yl)amino)phenyl)acrylamide] | 101 to 500 | 101 to 500
3 | C=CC(=O)Nc1ccccc1Nc1nc(Nc2cc(C(=O)NOC)ccc2OC)ncc1Cl [Compound I-187, 3-((4-((2-acrylamidophenyl)amino)-5-chloropyrimidin-2-yl)amino)-N,4-dimethoxybenzamide] | 101 to 500 | 101 to 500
4 | C=CC(=O)Nc1ccccc1Nc1nc(NC(C)(C)C)ncc1C(F)(F)F [Compound I-82, N-(2-((2-(tert-Butylamino)-5-(trifluoromethyl)pyrimidin-4-yl)amino)phenyl)acrylamide] | > 1000 | 501 to 999
5 | C=CC(=O)Nc1ccccc1Nc1nc(Nc2cc(C(=O)NOCCO)ccc2C)ncc1Cl [Compound I-198, 3-((4-((2-acrylamidophenyl)amino)-5-chloropyrimidin-2-yl)amino)-N-(2-hydroxyethoxy)-4-methylbenzamide] | 101 to 500 | 101 to 500
6 | C=CC(=O)Nc1cc(F)ccc1Nc1nc(Nc2ccc(F)cc2OC)ncc1Cl [Compound I-213, N-(2-((5-chloro-2-((4-fluoro-2-methoxyphenyl)amino)pyrimidin-4-yl)amino)-5-fluorophenyl)acrylamide] | 101 to 500 | 101 to 500
7 | C=CC(=O)Nc1cc(F)ccc1Nc1nc(Nc2cc(C(N)=O)ccc2C#N)ncc1Cl [Compound I-207, 3-(4-(2-acrylamido-4-fluorophenylamino)-5-chloropyrimidin-2-ylamino)-4-cyanobenzamide] | > 1000 | 101 to 500
8 | CC(=O)N1CCC[C@H](Nc2ncc(C(F)(F)F)c(Nc3ccccc3NC(=O)CCl)n2)C1 [Compound I-30, (S)—N-(2-((2-((1-Acetylpiperidin-3-yl)amino)-5-(trifluoromethyl)pyrimidin-4-yl)amino)phenyl)-2-chloroacetamide] | > 1000 | 101 to 500
9 | C=CC(=O)Nc1ccccc1Nc1nc(Nc2cncc(C(N)=O)c2)ncc1C(F)(F)F [Compound I-63, 5-((4-((2-Acrylamidophenyl)amino)-5-(trifluoromethyl)pyrimidin-2-yl)amino)nicotinamide] | > 1000 | 101 to 500
10 | C=CC(=O)Nc1ccccc1Nc1nc(Nc2cc(C(N)=O)c(OCCCNC(=O)C#CC)cc2C)ncc1Cl [Compound I-305, 5-((4-((2-acrylamidophenyl)amino)-5-chloropyrimidin-2-yl)amino)-2-(3-(but-2-ynamido)propoxy)-4-methylbenzamide] | > 1000 | 101 to 500
11 | C=CC(=O)Nc1ccccc1Nc1nc(Nc2cc(C(=O)NOCCO)ccc2OC)ncc1Cl [Compound I-194, 3-((4-((2-acrylamidophenyl)amino)-5-chloropyrimidin-2-yl)amino)-N-(2-hydroxyethoxy)-4-methoxybenzamide] | 501 to 999 | 101 to 500
12 | C#CC(=O)N[C@@H]1CCCC[C@H]1Nc1nc(N[C@H]2CCCN(C(=O)CO)C2)ncc1C(F)(F)F [Compound I-34, N-((1R,2R)-2-((2-(((S)-1-(2-Hydroxyacetyl)piperidin-3-yl)amino)-5-(trifluoromethyl)pyrimidin-4-yl)amino)cyclohexyl)propiolamide] | > 1000 | 101 to 500
13 | C=CC(=O)N(C)c1ccccc1Nc1nc(N[C@@H]2CCC[C@H](C(=O)NOC)C2)ncc1Cl (racemic) [Compound I-106, Rac-cis-3-((5-chloro-4-((2-(N-methylacrylamido)phenyl)amino)pyrimidin-2-yl)amino)-N-methoxycyclohexanecarboxamide] | > 1000 | > 1000
14 | C=CC(=O)Nc1ccccc1Nc1nc(N[C@H]2CCCN(C(=O)C(C)(C)O)C2)ncc1Cl [Compound I-135, (S)—N-(2-((5-chloro-2-((1-(2-hydroxy-2-methylpropanoyl)piperidin-3-yl)amino)pyrimidin-4-yl)amino)phenyl)acrylamide] | > 1000 | 101 to 500
15 | C=CC(=O)Nc1ccccc1Nc1nc(N[C@@H]2CCC[C@H](C(=O)NOC)C2)ncc1C(F)(F)F (racemic) [Compound I-3, Rac-cis-3-((4-((2-acrylamidophenyl)amino)-5-(trifluoromethyl)pyrimidin-2-yl)amino)-N-methoxycyclohexanecarboxamide] |  | 101 to 500
16 | C=CC(=O)Nc1cc(OC)ccc1Nc1nc(Nc2ccc(N3CCC[C@@H]3CO)cc2C#N)ncc1Cl [Compound I-181, (R)—N-(2-((5-chloro-2-((2-cyano-4-(2-(hydroxymethyl)pyrrolidin-1-yl)phenyl)amino)pyrimidin-4-yl)amino)-5-methoxyphenyl)acrylamide] |  | 501 to 999

Second part, the molecule after the results:

Row | EC50 [1] [nM] | IC50 [2] [nM] | Compound
17 | > 1000 | 101 to 500 | C=CC(=O)Nc1ccccc1Nc1nc(N[C@@H]2CCC[C@H](C(=O)O)C2)ncc1C(F)(F)F (racemic) [Compound I-14, Rac-3-((4-((2-acrylamidophenyl)amino)-5-(trifluoromethyl)pyrimidin-2-yl)amino)-cis-cyclohexanecarboxylic acid]
18 | 501 to 999 | 501 to 999 | C=CC(=O)N[C@@H]1CCCC[C@H]1Nc1nc(Nc2cc(C(N)=O)ccc2C)ncc1Cl (racemic) [Compound I-226, Rac-trans-3-((4-((2-acrylamidocyclohexyl)amino)-5-chloropyrimidin-2-yl)amino)-4-methylbenzamide]
19 | > 1000 | > 1000 | C=C(C)C(=O)Nc1cc(F)ccc1Nc1nc(N[C@@H]2CCC[C@H](C(N)=O)C2)ncc1Cl (racemic) [Compound I-114, Rac-cis-3-((5-chloro-4-((4-fluoro-2-methacrylamidophenyl)amino)pyrimidin-2-yl)amino)cyclohexanecarboxamide]
20 | > 1000 | 101 to 500 | C#CC(=O)NCCCOc1cc(C)c(Nc2ncc(Cl)c(Nc3ccccc3NC(=O)C=C)n2)cc1C(N)=O [Compound I-227, 5-((4-((2-acrylamidophenyl)amino)-5-chloropyrimidin-2-yl)amino)-4-methyl-2-(3-propiolamidopropoxy)benzamide]
21 |  | 101 to 500 | C=CC(=O)Nc1ccccc1Nc1nc(N[C@H]2CCCN(C(=O)[C@@H](O)CO)C2)ncc1C(F)(F)F [Compound I-50, N-(2-((2-(((S)-1-((S)-2,3-Dihydroxypropanoyl)piperidin-3-yl)amino)-5-(trifluoromethyl)pyrimidin-4-yl)amino)phenyl)acrylamide]
22 |  | 101 to 500 | C=CC(=O)Nc1ccccc1Nc1nc(N[C@H]2CC[C@H](C(N)=O)CC2)ncc1Cl [Compound I-129, trans-4-((4-((2-acrylamidophenyl)amino)-5-chloropyrimidin-2-yl)amino)-cyclohexanecarboxamide]
23 |  | > 1000 | C=CC(=O)N[C@@H]1CCCC[C@H]1Oc1nc(Nc2cc(C(N)=O)ccc2C)ncc1Cl (racemic) [Compound I-270, Rac-trans-3-((4-((2-acrylamidocyclohexyl)oxy)-5-chloropyrimidin-2-yl)amino)-4-methylbenzamide]
